What follows are compounds tested against T1, AKR1C3 Aldo-keto reductase family 1 member C3 (Homo sapiens, UniProt P42330) (assay: competitive isoTOP-ABPP). Details: 50 uM, 231 sol, in vitro.
T1 construct: isoTOP-ABPP experiments performed in cell lysates (in vitro); endogenous in cells; host or cells: soluble proteome of human cancer cell lines (MDA-MB-231; Ramos and Jurkat also prepared)
T1 sequence (P42330 1-323): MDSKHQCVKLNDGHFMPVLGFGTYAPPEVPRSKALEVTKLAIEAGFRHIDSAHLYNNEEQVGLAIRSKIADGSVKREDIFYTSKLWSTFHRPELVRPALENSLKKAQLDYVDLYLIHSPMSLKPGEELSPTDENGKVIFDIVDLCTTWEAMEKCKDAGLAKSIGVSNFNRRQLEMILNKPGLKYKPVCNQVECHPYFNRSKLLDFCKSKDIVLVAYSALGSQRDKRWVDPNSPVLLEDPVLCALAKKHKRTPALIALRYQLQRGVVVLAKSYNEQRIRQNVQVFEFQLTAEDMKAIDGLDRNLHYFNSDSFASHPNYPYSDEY
Assay type: binding
Procedure, shortened: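 Here, isoTOP-ABPP measures loss of STP-alkyne labeling at individual lysines after fragment exposure in lysate. Activated esters are dosed at 50 μM, guanidinylating agents at 100 μM; the probe follows at 0.1 mM for 1 h. R ≥4 marks a liganded lysine.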
For `O=C(CN1C(=O)c2ccccc2C1=O)Oc1c(F)c(F)c(F)c(F)c1F` [fragment 27, Pentafluorophenyl 2-(1,3-dioxoisoindolin-2-yl)acetate], the “isoTOP-ABPP reactivity ratio at lysine P42330_K270” value (“isoTOP-ABPP reactivity ratio” for short) was 2.7.
For `COc1cc(CCC(=O)Oc2ccc([N+](=O)[O-])cc2[N+](=O)[O-])cc(OC)c1OC` [fragment 33, 2,4-Dinitrophenyl 3-(3,4,5-trimethoxyphenyl)propanoate], the “isoTOP-ABPP reactivity ratio” value was 1.0.
With `O=C(CCc1cn(-c2ccccc2)nc1-c1ccccc1)Oc1ccc([N+](=O)[O-])cc1[N+](=O)[O-]` [fragment 29, 2,4-Dinitrophenyl 3-(1,3-diphenyl-1H-pyrazol-4-yl)propanoate] the “isoTOP-ABPP reactivity ratio” value was 2.1.
For `CCn1cc(C(=O)Oc2c(F)c(F)c(F)c(F)c2F)c(=O)c2ccc(C)nc21` [fragment 28, Pentafluorophenyl 1-ethyl-7-methyl-4-oxo-1,4-dihydro-1,8-naphthyridine-3-carboxylate], the “isoTOP-ABPP reactivity ratio” value was 1.8.
For `O=C(Oc1c(F)c(F)c(F)c(F)c1F)C1CCN(C(=O)OCc2ccccc2)CC1` [fragment 24, 1-Benzyl 4-(pentafluorophenyl) piperidine-1,4-dicarboxylate], the “isoTOP-ABPP reactivity ratio” value was 4.2.

Same assay, conditions: 50 uM, in vitro, sol, 231
In the case of `O=C(CCc1coc2cc(F)ccc2c1=O)Oc1ccc([N+](=O)[O-])cc1[N+](=O)[O-]` [fragment 36, 2,4-Dinitrophenyl 3-(7-fluoro-4-oxo-4H-chromen-3-yl)propanoate], the “isoTOP-ABPP ratio (R) at liganded lysine P42330_K270” value (shortened to “isoTOP-ABPP ratio (R)”) is reported as 0.6.
For `O=C(Oc1ccc([N+](=O)[O-])cc1[N+](=O)[O-])C(c1ccccc1)(c1ccccc1)c1ccccc1` [fragment 42, 2,4-Dinitrophenyl 2,2,2-triphenylacetate], the “isoTOP-ABPP ratio (R)” value was 0.9.
With `O=C(Oc1ccc([N+](=O)[O-])cc1[N+](=O)[O-])c1ccccc1Nc1cccc(C(F)(F)F)c1` [fragment 40, 2,4-Dinitrophenyl 2-((3-(trifluoromethyl)phenyl)amino)benzoate] the “isoTOP-ABPP ratio (R)” value was 2.2.
In the case of `O=C(Oc1ccc([N+](=O)[O-])cc1[N+](=O)[O-])C1CCN(C(=O)OCc2ccccc2)CC1` [fragment 34, 1-Benzyl 4-(2,4-dinitrophenyl) piperidine-1,4-dicarboxylate], the “isoTOP-ABPP ratio (R)” value is reported as 1.1.
`O=C(CC12CC3CC(CC(C3)C1)C2)Oc1ccc([N+](=O)[O-])cc1[N+](=O)[O-]` [fragment 38, 2,4-Dinitrophenyl 2-(adamantan-1-yl)acetate] was tested, and the “isoTOP-ABPP ratio (R)” value was 0.9.
For `O=C(Oc1ccc([N+](=O)[O-])cc1[N+](=O)[O-])c1ccc(-c2ccccc2)cc1` [fragment 37, 2,4-Dinitrophenyl [1,1′-biphenyl]-4-carboxylate], the “isoTOP-ABPP ratio (R)” value was 0.8.
`O=C(Oc1ccc([N+](=O)[O-])cc1[N+](=O)[O-])c1ccc2ccccc2n1` [fragment 35, 2,4-Dinitrophenyl quinoline-2-carboxylate] was tested, and the “isoTOP-ABPP ratio (R)” value was 0.6.
In the case of `CC(C)(C)OC(=O)NCCCC(=O)Oc1ccc([N+](=O)[O-])cc1[N+](=O)[O-]` [fragment 41, 2,4-Dinitrophenyl 4-((tert-butoxycarbonyl)amino)butanoate], the “isoTOP-ABPP ratio (R)” value is reported as 0.7.
With `O=C(Oc1ccc([N+](=O)[O-])cc1[N+](=O)[O-])c1ccc(Oc2ccccc2)cc1` [fragment 39, 2,4-Dinitrophenyl 4-phenoxybenzoate] the “isoTOP-ABPP ratio (R)” value was 0.8.

Same assay, conditions: 50 uM_231_sol_in vitro; possible other lysine P52895_K270, P17516_K270, Q04828_K270
With `O=C(Oc1c(F)c(F)c(C(F)(F)F)c(F)c1F)c1cc(C(F)(F)F)cc(C(F)(F)F)c1` [fragment 47, 2,3,5,6-Tetrafluoro-4-(trifluoromethyl)phenyl 3,5-bis(trifluoromethyl)benzoate] the “isoTOP-ABPP ratio, lysine P42330_K270” value was 2.5.
In the case of `NC(=O)c1cc(C(F)(F)F)cc(C(F)(F)F)c1` [fragment 51, reference compound], the “isoTOP-ABPP ratio, lysine P42330_K270” value is reported as 0.8.
With `N#Cc1ccc(C(=O)Oc2ccc([N+](=O)[O-])cc2[N+](=O)[O-])cc1` [fragment 44, 2,4-Dinitrophenyl 4-cyanobenzoate] the “isoTOP-ABPP ratio, lysine P42330_K270” value was 0.5.
`O=C(CCc1ccc2c(c1)OCO2)Oc1ccc([N+](=O)[O-])cc1[N+](=O)[O-]` [fragment 45, 2,4-Dinitrophenyl 3-(benzo[d][1,3]dioxol-5-yl)propanoate] was tested, and the “isoTOP-ABPP ratio, lysine P42330_K270” value was 0.8.

Same assay, conditions: 100 uM_231_sol_in vitro; possible other lysine P52895_K270, P17516_K270, Q04828_K270
`CC(C)(C)OC(=O)N=C(NC(=O)OC(C)(C)C)n1cccn1` [fragment 50, reference compound] was tested, and the “isoTOP-ABPP ratio, lysine P42330_K270” value was 0.7.
In the case of `COC(=O)NC(=NC(=O)OCC1c2ccccc2-c2ccccc21)n1cccn1` [fragment 49, N-Methoxycarbonyl-N′-9-fluorenylmethoxycarbonyl-pyrazole-1-carboxamidine], the “isoTOP-ABPP ratio, lysine P42330_K270” value is reported as 0.8.

Same assay, conditions: P42330_K270; 50 uM, 231 sol, in vitro
For `O=C(Oc1c(F)c(F)c(F)c(F)c1F)C(c1ccccc1)c1ccccc1` [fragment 20, Pentafluorophenyl 2,2-diphenylacetate], the “R value (DMSO/fragment) for probe 1 labeling” value was 1.4.
